Experimental data reported in the NIST ThermoML archive (doi:10.1021/je300775u).

Test: xn = mol fraction of the nth substance listed
Conditions: 101 kPa, Liquid; for mass density: Vibrating tube method; for speed of sound: Pulse-echo method

BrCBr [dibromomethane] + CCCCCCC
Conditions	mass density, 303.15 K [kg/m3]	mass density, 308.15 K [kg/m3]	mass density, 313.15 K [kg/m3]	speed of sound, 308.15 K [m/s]	speed of sound, 313.15 K [m/s]
x1 = 0.0504	718.56	714	709.41	1065.7	1045.1
x1 = 0.1039	767.19	762.36	757.48	1044.3	1024.3
x1 = 0.1552	816.67	811.54	806.36	1025.2	1005.6
x1 = 0.2037	866.26	860.84	855.37	1008.2	989
x1 = 0.2532	920.03	914.3	908.53	992.3	973.7
x1 = 0.3019	976.09	970.04	963.95	977.6	959.6
x1 = 0.354	1040.23	1033.82	1027.38	963.5	946
x1 = 0.4022	1103.65	1096.88	1090.09	951.5	934.5
x1 = 0.4552	1178.34	1171.15	1163.95	939.6	923
x1 = 0.4962	1240.03	1232.54	1225	931.2	914.8
x1 = 0.5532	1332.06	1324.08	1316.09	921.4	905.5
x1 = 0.6119	1435.65	1427.16	1418.62	912.9	897.5
x1 = 0.6543	1516.52	1507.63	1498.69	908	893
x1 = 0.7032	1617.14	1607.76	1598.32	903.9	889.2
x1 = 0.7514	1724.55	1714.66	1704.72	901.5	887.2
x1 = 0.8024	1848.85	1838.4	1827.87	901.1	887
x1 = 0.8518	1981.12	1970.07	1958.96	902.9	889.3
x1 = 0.9004	2123.78	2112.21	2100.38	907.1	893.8
x1 = 0.9502	2285.74	2273.36	2260.95	914.1	901.1
x1 = 1	2465.53	2452.42	2439.26	924	911.4
